Measured values taken from patent US7399460B2, “Metal complexes derivatized with folate for use in diagnostic and therapeutic applications” (Bracco International B.V., priority 1998, dated 2008).

Legend:
[1] = system: MA104 cells; settings: cited from earlier work
[2] = target: cell surface FBP (Homo sapiens, UniProt P15328); settings: in the presence of an equimolar amount of conjugate; cited from earlier work
[3] = target: T1, folate binding protein on the KB cells (Homo sapiens, UniProt P15328); test: Binding of alpha and gamma isomers of ^99mTc-oxa-folate to KB cells at 4° C.; settings: 30 min; for competition with native folate for folate binding protein on KB cells: plus 250-260 pmol cold native folate, 4° C. (FIG. 4, white bars); for binding to KB cells relative to that observed with 10 pmol of ^3H-folate: trace amounts (~0.5 μCi), 4° C., no cold folate (FIG. 4, dark bars)
T1 construct: host or cells: KB cells
T1 sequence (P15328 25-234): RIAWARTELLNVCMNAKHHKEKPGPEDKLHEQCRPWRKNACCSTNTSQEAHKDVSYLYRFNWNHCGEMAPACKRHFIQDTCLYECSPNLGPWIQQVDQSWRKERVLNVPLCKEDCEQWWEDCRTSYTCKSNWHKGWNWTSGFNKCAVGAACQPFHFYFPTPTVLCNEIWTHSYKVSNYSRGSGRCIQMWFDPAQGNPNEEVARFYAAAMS
Description: The ability of the alpha and gamma isomers of ^99mTc-oxa-folate to bind to KB cells was studied at 4° C. KB cells (˜5×10^5 cells/well) were seeded into 35-mm wells and incubated for 48 hours as described in example 17 above. The alpha and gamma isomers of ^99mTc-oxa-folate, were prepared and purified as described in examples 14 and 16. The cells were then cooled to 4° C. for 30 min and incubated with the following mixtures for 30 min at 4° C.: • 1. 10 pmol of ^3H-folate • 2. 10 pmol of ^3H-folate and 250 pmol of native folate • 3. […] Trace amounts (˜0.5 μCi) of ^99mTc-Oxa-γ-folate • 6. Trace amounts (˜0.5 μCi) of ^99mTc-Oxa-γ-folate and 260 pmol of native folate
(§1) Following the incubation period, the cells were washed 3 times with ice-cold Tris-buffered saline. The cells were then stripped from the plates using 1.0 mL of water. Aliquots of the water/cell mixture were assayed for the respective radioisotopes and for cellular protein (to determine the number of KB cells present in each well). The radioassay data were used to calculate the % of radiolabeled compound bound to the cells in the absence and presence of unlabeled native folate. Data in FIG. 4 are presented as the percentage bound, relative to the % bound in the control wells containing 10 pmol of ^3H-folate.

[4] = target: T2, JAR cells (Homo sapiens, UniProt P15328); test: Binding of ^153Gd-folates or ^3H folate to JAR cells at 37° C.
T2 construct: host or cells: JAR cells
T2 sequence (P15328 25-234): as above
Description: (§2) Cell culture: KB cells (a human nasopharyngeal epidermal carcinoma cell line) and JAR cells (a human choriocarcinoma cell line) were obtained from ATCC (American Type Culture Collection). Both cell lines are reported to overexpress transcripts encoding folate binding protein. […] The media for each cell line was supplemented with 10% defined fetal calf serum (HyClone, Inc.) Monolayers were cultured at 37° C. in a humidified atmosphere containing 5% CO2.
(§3) Forty-eight hours prior to each experiment, 5×10^5 cells were seeded into 35 mm culture dishes and allowed to grow for 2 days in folate-depleted media. The cells were then washed with Tris-buffered saline (TBS=150 mM NaCl, 50 mM Tris, pH 7.5) and 1 mL of fresh media containing 10 pmol ^153Gd-DO3A-APA-folate (α or γ isomer) and 0-900 pmol of cold native folate per sample was added. Control experiments were performed using 10 pmol of ^3H folate (Amersham International) and 0-900 pmol of cold native folate. The cells were incubated for 30 min at 37° C. They were then washed three times with ice cold TBS and suspended in one ml of water. Cell associated radioactivity was determined by gamma (^153Gd-folate) or scintillation counting (^3H-folate) of a 500 μl aliquot of this suspension; 100 μl was used in the BCA protein assay (Pierce catalog # 23225), which was used to determine and normalize for cellular protein content.

[5] = target: T3, folate binding protein on KB cells (Homo sapiens, UniProt P15328); test: Binding of ^153Gd-DO3A-APA-folate (α or γ isomer) or ^3H folate to KB cells at 37° C. in competition with cold native folate; settings: 10 pmol labelled compound, 0-900 pmol cold native folate, 30 min, FIG. 1
T3 construct: host or cells: KB cells
T3 sequence (P15328 25-234): as above
Description: as §2, §3

[6] = target: T1, folate binding protein on the KB cells; test: Binding of ^3H-folate and alpha or gamma isomer of ^153Gd-DO3A-APA-folate to KB cells at 4° C. with and without excess folate; settings: 30 min
Description: In a second experiment, the ability of the alpha and gamma isomers of ^153Gd-DO3A-APA-folate to bind to KB cells at 4° C. was studied. KB cells (˜5×10^5 cells/well) were seeded into 35-mm wells and incubated for 48 hours as described above. The cells were then cooled to 4° C. for 30 min and incubated with the following mixtures for 30 min at 4° C.: • 1. 10 pmol of ^3H-folate • 2. 10 pmol of ^3H-folate and 250 pmol of native folate • 3. 10 pmol of ^153Gd/Gd(DO3A-APA-α-folate) • 4. 10 pmol of ^153Gd/Gd(DO3A-APA-α-folate) and 250 pmol of native folate • 5. 10 pmol of ^153Gd/Gd(DO3A-APA-γ-folate) • 6. 10 pmol of ^153Gd/Gd(DO3A-APA-γ-folate) and 250 pmol of native folate
as §1, with “ice-old” for “ice-cold”, “2” for “4”

[7] = system: JAR tumors; test: Biodistribution at MRI dose level in nude mice with subcutaneous JAR tumors; settings: 60 min, 79.2 μmol/kg dose
Description: Biodistribution studies were performed using female nu/nu mice implanted with subcutaneous JAR tumors using the general procedures described in the example above. Animals were sacrificed 60 min post IV injection of an “MRI” dose level (0.1 mmol/kg) of ^153Gd/Gd-DO3A-APA-(α)-folate, ^153Gd/Gd-DO3A-APA-(γ)-folate or Bis(^153Gd/Gd-DO3A-APA)folate and selected organs were removed, weighed, and assayed for radioactivity, in order to determine the % injected dose/g-tissue (% ID/g) in the tumors.

[8] = system: KB cells; test: In vitro exchange study with cold native folate in the medium, KB cells; format: cell-based, human; settings: 24 hours, 37° C., medium with cold native folate (250 nM), FIG. 4A
Description: (§4) Exchange studies were performed to examine the effect of native folate on the radioactivity levels in KB or JAR cells that had been pre-loaded with a saturating level of radiolabeled Gd-folates or native folate in vitro. ^3H-folate, ^153Gd-DO3A-APA-(γ)-folate or ^153Gd-DO3A-APA-(α)-folate (250 pmol) was incubated with KB or JAR cells as described in Example 18. At the end of the 30-min incubation period, these ^153Gd-folate or ^3H-folate-loaded cells were washed five times with ice-cold media containing 250 nM cold, native folate and were then incubated at 37° C. for 24 hours with media that contained 250 pmol of cold folate. At predetermined intervals during this time, the incubation medium was removed and replaced with fresh medium at 37° C. The radioactivity present in each aliquot of the incubation medium was used to determine the rate at which radioactivity from the ^3H-folate, ^153Gd-DO3A-APA-(γ)-folate or ^153Gd-DO3A-APA-(α)-folate washed out of the cells. At the end of the study, the cells were suspended in one ml of water and assayed for radioactivity and protein content.

[9] = target: T2, JAR cells; test: In vitro exchange study with cold native folate in the medium, JAR cells; format: cell-based
Description: as §4

Chain of cell surface FBP (P15328 25-234): as above

**Q.** Which “binding by MA104 cells” value [1] does the source give for `Nc1nc2ncc(CNc3ccc(C(=O)N[C@@H](CCC(=O)O)C(=O)O)cc3)nc2c(=O)[nH]1` [folic acid] here?
**A.** 1-2 pmol folic acid/10^6 cells

**Q.** Which “decrease in bound ^3H folic acid” value [2] does the source give for `CC(=O)N(O)CCCCCNC(=O)CCC(=O)N(O)CCCCCNC(=O)CCC(=O)N(O)CCCCCNC(=O)C(CCC(=O)O)NC(=O)c1ccc(NCc2cnc3nc(N)[nH]c(=O)c3n2)cc1` (single isomer, unassigned) [DF-folate (α) isomer] here?
**A.** no ability to compete

**Q.** With “99m-Technetium complex of 12-(N-Pteroyl-α-L-glutamyl)-3,3,9,9-tetramethyl-5-oxa-4,8-diaza-2,10-dodecanedione dioxime [^99mTc-Oxa-α-folate]” as the molecule, how does the “competition with native folate for folate binding protein on KB cells” value (“competition with native folate” for short) [3] read?
**A.** do compete for folate binding protein on the KB cells

**Q.** And the “binding to KB cells relative to that observed with 10 pmol of ^3H-folate” value [3]?
**A.** 140%

**Q.** With `CC(C)(C)OC(=O)NCCCC(CCCNC(=O)OC(C)(C)C)(CCCNC(=O)OC(C)(C)C)NC(=O)CCC(=O)NC(CCC(=O)OCc1ccccc1)(CCC(=O)OCc1ccccc1)CCC(=O)OCc1ccccc1` [Example 11, N-[1,5-Bis(benzyloxycarbonyl)-3-[2-(benzyloxycarbony)ethyl)]-3-pentyl]-N′-[1,7-bis-(t-butoxycarbony)amino-[4-(3-(t-butyloxycarbonyl)propyl]-4-heptyl]butanedioic diamide] as the molecule, how does the melting point read?
**A.** 95 to 96 °C

**Q.** For `CC(=O)N(O)CCCCCNC(=O)CCC(=O)N(O)CCCCCNC(=O)CCC(=O)N(O)CCCCCNC(=O)CCC(NC(=O)c1ccc(NCc2cnc3nc(N)[nH]c(=O)c3n2)cc1)C(=O)O` (stereo not drawn) [DF-folate (γ) conjugate], which “decrease in bound ^3H folic acid” value [2] is on record?
**A.** 50%

**Q.** For ^153Gd-DO3A-APA-(γ)-folate, which “ability to compete with cold native folate for binding to the JAR cells” value ([4]; 10 pmol, 0-900 pmol cold folate, 30 min, 37° C.) is on record?
**A.** equally effective

**Q.** What about the “binding to JAR cells compared with the radiolabeled control (^3H-folate)” value ([4]; comparable test conditions, FIG. 1A) of the same molecule?
**A.** about half as effective

**Q.** And the “amount bound to the KB cells” value [5]?
**A.** No significant differences

**Q.** And the “competition with native folate” value ([6]; 10 pmol plus 250 pmol cold native folate, 4° C. (FIG. 2, white bars))?
**A.** do compete for folate binding protein on the KB cells

**Q.** And the “binding to KB cells compared with 10 pmol of ^3H-folate” value ([6]; 10 pmol, 4° C., no cold folate (FIG. 2, dark bars))?
**A.** to the same extent

**Q.** With Bis(^153Gd-DO3A-APA)-folate as the molecule, how does the “Tumor % ID/g” value [7] read?
**A.** 1.48 (0.12) % ID/g

**Q.** What about the “[Gd] in tumor tissue” value ([7]; calculated from % ID/g) of the same molecule?
**A.** 55 (4) μM

**Q.** Which “competition with native folate” value [3] does the source give for “99m-Technetium complex of 12-(N-Pteroyl-γ-L-glutamyl)-3,3,9,9-tetramethyl-5-oxa-4,8-diaza-2,10-dodecanedione dioxime [^99mTc-Oxa-γ-folate]” here?
**A.** do compete for folate binding protein on the KB cells

**Q.** And the “binding to KB cells relative to that observed with 10 pmol of ^3H-folate” value [3]?
**A.** to the same extent

**Q.** For Gd-DO3A-APA-(γ)-folate, which “radioactivity lost from loaded KB cells to the incubation medium” value [8] is on record?
**A.** 20%

**Q.** What about the “radioactivity from loaded JAR cells found in the medium” value ([9]; after 6 hours, 37° C., medium with cold native folate, FIG. 4B) of the same molecule?
**A.** 30%

**Q.** And the “amount of compound washed from the JAR cells” value ([9]; at 24 hours)?
**A.** similar
